O=C(O)c1ccc(Cl)cc1Cl
solubility (mole fraction)
Details | in acetone | in acetonitrile | in ethanol | in ethyl acetate | in isobutanol | in isopropanol | in methanol | in n-butanol | in n-propanol | in toluene
273.15 K | 0.0323 | 0.00318 | 0.0364 | 0.0232 | 0.0242 | 0.0367 | 0.0261 | 0.0374 | 0.0348 | 0.00132
278.15 K | 0.0359 | 0.00361 | 0.04 | 0.0263 | 0.0281 | 0.0412 | 0.0294 | 0.0418 | 0.0385 | 0.00174
283.15 K | 0.0394 | 0.00451 | 0.0442 | 0.0308 | 0.0326 | 0.0459 | 0.0331 | 0.0468 | 0.0422 | 0.0022
288.15 K | 0.0439 | 0.00531 | 0.0485 | 0.0347 | 0.0375 | 0.0501 | 0.0369 | 0.0511 | 0.0465 | 0.00284
293.15 K | 0.0482 | 0.00597 | 0.0537 | 0.0395 | 0.043 | 0.0565 | 0.0411 | 0.0563 | 0.052 | 0.0036
298.15 K | 0.0531 | 0.00702 | 0.0591 | 0.0441 | 0.0483 | 0.0627 | 0.0458 | 0.0616 | 0.0575 | 0.00433
303.15 K | 0.0585 | 0.00786 | 0.065 | 0.0484 | 0.0535 | 0.0699 | 0.0505 | 0.0676 | 0.0631 | 0.00552
308.15 K | 0.0648 | 0.00929 | 0.0719 | 0.0537 | 0.0597 | 0.0769 | 0.0556 | 0.0746 | 0.0695 | 0.00671
313.15 K | 0.0713 | 0.0103 | 0.0788 | 0.0595 | 0.066 | 0.0849 | 0.0616 | 0.0814 | 0.0763 | 0.00837
318.15 K | 0.0784 | 0.0115 | 0.0849 | 0.0654 | 0.0719 | 0.0944 | 0.0673 | 0.0891 | 0.0823 | 0.00993
